Source: PubChem BioAssay AID179 (DTP/NCI, 2004)
pEC50, pIC50: −log10 of the molar value. Active and inactive are the calls of the source.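 The calls were made as follows: active = compounds giving half or more protection of infected cells from virus-caused growth loss, again on retest; inactive = the rest.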

System: CEM cells HIV-1 protection, formazan growth assay
Experiment: NCI AIDS Antiviral Assay
Details: for pIC50: measured here: growth of uninfected CEM cells
Procedure: The ability of compounds to protect human CEM cells from HIV-1 infection is measured as a screen for new compounds capable of inhibiting the HIV virus. Five concentrations of drug were tested on uninfected and infected cells and cell growth was measured using a soluble formazan assay. […] Compounds that provided at least 50% protection were retested. Compounds that provided at least 50% protection on retest were listed as moderately active. Compounds that reproducibly provided 100% protection were listed as confirmed active. […] Note that the inability to provide protection could be due to toxicity.

SMILES	pEC50	pIC50	outcome
CC[C@H]1C[C@@H](O)[C@@H]2[C@H](O)[C@H](O)CN2C1	< 3.70	< 3.70	–
O=C(Cc1nc2ccc(C(=O)c3ccccc3)cc2[nH]c1=O)C(=O)Nc1nc2ccccc2[nH]1	–	–	inactive
Cc1oc(C)c2c1C(=O)N(C)C2=O	< 4.00	< 4.00	–
O=c1[nH]c2ccc(O)cc2o1	< 3.70	< 3.70	–
CCOc1ccccc1N1CSc2nnc(-c3ccccc3)n2C1	< 3.83	4.08	–
CC(C)n1cc(C(C)(C)C)nc1SSc1nc(C(C)(C)C)cn1C(C)C	< 3.70	< 3.70	–
O=C(NCCCCCCNC(=O)NS(=O)(=O)c1ccccc1)NS(=O)(=O)c1ccccc1	< 3.70	< 3.70	–
CCOC(=O)/C(F)=C/c1cccc(F)c1	< 3.77	< 3.77	–
CCc1n[nH]c(=O)n1/N=C/c1ccc(C)cc1	< 3.70	3.80	–
CSc1c(C(=O)Nc2ccc(Cl)cc2)c(N)nn1-c1ccccc1	< 3.70	< 3.70	–
NC(=O)c1ncn(C2OC(CO)C(F)C2O)c1N (stereo not drawn)	< 3.70	< 3.70	–
COc1ccc2nc3cccc([N+](=O)[O-])c3c(NCCNCCO)c2c1	< 6.70	6.95	–
COc1cccc2c1C(=O)C1=C(C2=O)C(O)CC(C)(C)O1 (stereo not drawn)	< 3.70	4.47	–
COc1cc(NCCCCCN=C(N)NC#N)c2ncccc2c1	< 4.10	4.30	–
CCN(CC)c1ccc2cc(C(=O)Nc3cccc4ccccc34)c(=N)oc2c1	< 3.70	4.90	–
Cc1cc(O)c2c(oc3cc(O)c4c(c32)COC4=O)c1C(=O)O	< 4.25	4.73	–
CC(=O)c1cc(I)c(O)c2ncccc12	< 4.10	5.84	–
CCC1(O)C(=O)Nc2ccccc2C1=O (stereo not drawn)	< 3.70	< 3.70	–

SMILES	pEC50	pIC50	outcome
CN(C)C(=S)SC(=S)N(C)C	< 3.70	4.96	–
CN(Cc1ccccc1)c1nc(=[N+](C)C)ss1	–	–	inactive
COc1ccc(CC2c3c(cc(OC)c(OC)c3OC)CCN2C)cc1OC (stereo not drawn)	< 3.23	3.80	–
O=C(NCCO)c1c(CO)n([O-])c2ccccc2[n+]1=O	< 3.19	3.67	–
O=S1(=O)NCNc2cc(C(F)(F)F)ccc21	< 3.00	3.42	–
COC(OC)[C@@H]1OC[C@H](n2cnc3c(N)ncnc32)[C@H]1O	< 3.70	< 3.70	–
Cc1ccc(NC(=O)CC2C(=O)Nc3ccccc3S2=O)cc1C (stereo not drawn)	< 4.82	< 4.82	–
COc1ccc(/C=C2/C(=O)C(c3ccccc3)N(c3ccccc3)C2=O)cc1OC (stereo not drawn)	< 3.70	3.97	–
CC(C)OCC(O)COc1cc(=O)oc2ccccc12 (stereo not drawn)	< 3.70	< 3.70	–
COc1cc2c(cc1OC(=O)CC(C)O)C1C(OC2=O)C(OC(C)=O)C=C2CCN(C)[C@H]21 (stereo partly drawn)	< 4.25	< 4.25	–
CCOC(=O)NC(=O)c1cn(CCN2CCNCC2)c(=O)[nH]c1=O	–	–	inactive
c1ccc(-c2cc3ccc4cccnc4c3o2)cc1	< 3.97	4.25	–
CC(=O)OC[C@]12[C@H](OC(C)=O)[C@H](OC(C)=O)[C@@H]3C(OC(C)=O)[C@@]14OC3(C)COC(=O)c1cccnc1CCC(C)C(=O)OC([C@H]4C)[C@H](O)[C@@H]2OC(=O)c1ccccc1 (stereo partly drawn)	–	–	inactive
CCC[CH2][Sn]1([CH2]CCC)[O]CC([CH2][Sn]([c]2ccccc2)([c]2ccccc2)[c]2ccccc2)[O]1 (stereo not drawn)	< 5.40	7.63	–
N#Cc1ccc(CSC2=C(c3ccc(Cl)cc3)S/C(=C3\SC(SCc4ccc(C#N)cc4)=C(c4ccc(Cl)cc4)S3)S2)cc1	< 4.00	< 4.00	–
O=c1ccn(C2CC(O)C(CO)O2)c(=O)[nH]1 (stereo not drawn)	< 3.23	3.51	–
COc1ccc([N+](=O)[O-])cc1NC(=O)c1ccc2c(c1)C(=O)OC2=O	4.53	4.19	–
C1=Nc2ccc(cc2)N=Cc2ccccc2OCc2cccc(n2)COc2ccccc21	< 3.70	< 3.70	–
